Assay results from PMC10421376, “Simultaneous Determination of Five Iridoids of Picrorhiza scrophulariiflora in Rat Plasma Using UHPLC-ESI-MS/MS” (Molecules, 2023).
Read-outs that look alike come from different tables or passages of the source.

Experiments:
[1] = Pharmacokinetics of five iridoids in rat plasma after oral administration of PS extract (UHPLC-ESI-MS/MS); format: in vivo, SD (Sprague Dawley) rats
Method: Six adult male SD (Sprague Dawley) rats (220–250 g) were purchased from the Animal Experiment Center of Heilongjiang University of Chinese Medicine. The Animal Ethics Committee of Harbin Medical University approved the experimental protocol, which conformed to the principles for the Care and Use of Laboratory Animals. The experimental animals were fed under the following conditions: room temperature (20–25 °C), relative humidity (40–60%), 12 h of alternating day and night lighting, 12 h of fasting before the experiment, and free access to water. We calculated the dosage of SD rats using the standardized formula for body surface area (BSA). According to the Chinese Pharmacopoeia, the dosage of PS raw medicine for human use is 10 g. The dosage for rats is 0.9 g/kg.
The dried PS powder weighed 200 g and was extracted with eight times the amount of 75% ethanol at reflux three times for 2 h each time. The extracts were combined, filtered, distilled under reduced pressure until the alcoholic taste disappeared, and lyophilized with water. In our previous laboratory experiments, we used HPLC to determine the content of five analytes, namely Picroside-I (15.68 mg/g), Picroside-II (103.64 mg/g), Picroside-III (64.08 mg/g), minecoside (2.02 mg/g), and sweroside (12.28 mg/g). After freeze-drying, we dissolved the solid in a 5% sodium carboxymethyl cellulose solution and prepared a medicinal extract solution with a concentration of 0.3 g/mL.
A dose of 1 g/kg of body weight was administered to rats according to the pharmacopoeia and previous content results for the five analytes. Rat tail vein blood samples were collected in heparinized tubes before and 0.167, 0.333, 0.5, 0.75, 1, 2, 4, 6, 8, and 12 h after administration and centrifuged at 3500 rpm for 10 min. We obtained 100 µL of the upper layer of plasma and stored it at −20 °C for measurement.
The plasma samples were treated according to the method described in Section 3.3. The plasma samples were determined according to the chromatographic conditions described in Section 3.4 and chromatograms were recorded. The measured peak area ratios of the substances being measured and the IS were substituted into the accompanying standard curves on the same day. We also calculated the blood concentrations of Picroside-I (15.68 mg/g), Picroside-II (103.64 mg/g), Picroside-III (64.08 mg/g), minecoside (2.02 mg/g), and sweroside (12.28 mg/g), respectively. We determined the QC samples at the same time, allowing a maximum of two different concentrations of QC samples to exceed the theoretical value of ±15% of the RE% value.
The peak areas of Picroside-I, Picroside-II, Picroside-III, minecoside, sweroside, and IS in each sample were recorded. We calculated and substituted their ratios into the standard curve equation to obtain corresponding concentrations for the five substances being measured in the plasma of SD rats. The blood concentration data of each rat were processed separately to calculate the relevant pharmacokinetic parameters, and the mean and standard deviation of the parameters were further calculated. We calculated and plotted pharmacokinetic parameters including concentration–time curves (AUC0–t, AUC0–∞), average residence time (MRT), maximum plasma concentration (Cmax), time to reach the maximum concentration (Tmax), and half-time (t1/2) using pharmacokinetic software (DAS 2.0) with a non-atrial chamber model for blood concentration–time curves. All parameters were expressed as mean ± SD.

hyaluronidase = settings: cited from earlier work
CXCR4 = system: CXCR4; design: method as in PMID 32016931; settings: breast cancer cells; cited from earlier work
[2] = Stability of the analytes in rat plasma QC samples under storage and processing conditions; format: in vitro ADME; settings: n = 6; for Short-Term Stability RE: room temperature 4 h; for Freeze-Thaw RE: three freeze-thaw cycles −20 °C/room temperature; for Long-Term Stability RE: −20 °C two weeks
Method: Stability refers to the chemical stability of the sample being tested in a given medium under certain external conditions. We obtained 100 µL of rat blank plasma and prepared low, medium, and high concentrations of the QC sample standard solutions, Picroside-I, Picroside-II, Picroside-III, minecoside, and sweroside, according to the method described in Section 3.3. As simulated biological samples, the following conditions were investigated: (1) Short-term stability (QC samples were left at room temperature for 4 h, which exceeded the sample preparation time); (2) long-term stability (QC samples were left at −20 °C for two weeks); (3) freeze-thaw stability (three freeze-thaw cycles at −20 °C/room temperature) and post-preparation stability (QC samples were left in a 4 °C auto sampling chamber for 24 h).

H9c2 = settings: cardiac cell line H9c2; cited from earlier work
[3] = design: method as in PMID 27498779; settings: mice, bile stasis-induced liver injury; cited from earlier work
[4] = male, Sprague-Dawley, rat, in vivo, po, 1 g/kg
[5] = rat plasma, oral PS extract 1 g/kg, n = 6, mean ± SD

SMILES | AUC(0-inf) [1, 4] [ng·h/mL] | AUC(0-t) [1, 4] [ng·h/mL] | Cl [1, 4] [mL/min/kg] | Cmax [1, 4] [ng/mL] | MRT last [1, 4] [h] | Tmax [1, 4] [h] | Vd [1, 4] [L/kg] | half-life [1, 4] [h] | Short-Term Stability RE ([2]; high QC) [%] | Freeze-Thaw RE ([2]; high QC) [%] | Long-Term Stability RE ([2]; high QC) [%] | Short-Term Stability RE ([2]; low QC) [%] | Freeze-Thaw RE ([2]; low QC) [%] | Long-Term Stability RE ([2]; low QC) [%] | Short-Term Stability RE ([2]; medium QC) [%] | Freeze-Thaw RE ([2]; medium QC) [%] | Long-Term Stability RE ([2]; medium QC) [%] | other results
COc1ccc(/C=C/C(=O)O[C@H]2[C@@H]3C=CO[C@@H](O[C@@H]4O[C@H](CO)[C@@H](O)[C@H](O)[C@H]4O)[C@@H]3[C@@]3(CO)O[C@@H]23)cc1O [Minecoside, minecoside] | 93.5 ± 22.6 | 78.9 ± 10.2 | 119.1 ± 39.7 | 21.1 ± 7.8 | 4.1 ± 0.7 | 1 ± 0.2 | 19.26 ± 4.77 | 5 ± 2.3 | – | – | – | – | – | – | – | – | – | Hyaluronidase inhibitory activity (hyaluronidase): hyaluronidase inhibitory activity; Effect on CXCR4 expression (CXCR4): inhibits the expression of CXCR4
COc1cc(C(=O)O[C@H]2[C@@H]3C=CO[C@@H](O[C@@H]4O[C@H](CO)[C@@H](O)[C@H](O)[C@H]4O)[C@@H]3[C@@]3(CO)O[C@@H]23)ccc1O [Picroside-II] | 611 ± 246 | 604 ± 239 | 2873.3 ± 999.3 | 336 ± 92.3 | 2.3 ± 0.5 | 1.1 ± 0.1 | 796 ± 503.5 | 2.3 ± 1.5 | 4.47 | −1.47 | −2.19 | −4.99 | 7.08 | 8.69 | 8.53 | −7.21 | 1.37 | AUC(0-t) ([1]; male, Sprague-Dawley, rat, in vivo, po): 604 ± 239 ng·h/mL
O=C(/C=C/c1ccccc1)OC[C@H]1O[C@@H](O[C@@H]2OC=C[C@H]3[C@H](O)[C@@H]4O[C@]4(CO)[C@@H]23)[C@H](O)[C@@H](O)[C@@H]1O [Picroside-I] | 382 ± 29.4 | 361 ± 25.6 | 607.2 ± 290.6 | 114 ± 16.1 | 3.6 ± 0.2 | 1.1 ± 0.2 | 186.7 ± 17.436 | 2.4 ± 0.3 | 6.58 | −1.94 | 3.59 | 8.93 | 6.43 | 5.60 | 3.83 | −2.74 | −5.69 | –
C=C[C@H]1[C@H](O[C@@H]2O[C@H](CO)[C@@H](O)[C@H](O)[C@H]2O)OC=C2C(=O)OCC[C@H]21 [Sweroside, sweroside] | – | – | – | – | – | – | – | – | – | – | – | – | – | – | – | – | – | AUC(0-t) ([1]; male, Sprague-Dawley, in vivo, rat plasma, oral PS extract 1 g/kg, n = 6, mean ± SD, read-out: AUC0–t): 261 ± 65.3 ng·h/mL; AUC(0-inf) ([1]; male, Sprague-Dawley, in vivo, rat plasma, oral PS extract 1 g/kg, n = 6, mean ± SD, read-out: AUC0–∞): 268 ± 70.8 ng·h/mL; Cmax ([1]; male, Sprague-Dawley, in vivo, rat plasma, oral PS extract 1 g/kg, n = 6, mean ± SD, read-out: Cmax): 63.7 ± 17.6 ng/mL; MRT last ([1]; male, Sprague-Dawley, in vivo, rat plasma, oral PS extract 1 g/kg, n = 6, mean ± SD, read-out: MRT0–t): 3.9 ± 0.3 h; Tmax ([1]; male, Sprague-Dawley, in vivo, rat plasma, oral PS extract 1 g/kg, n = 6, mean ± SD, read-out: Tmax): 2.1 ± 0.1 h; half-life ([1]; male, Sprague-Dawley, in vivo, rat plasma, oral PS extract 1 g/kg, n = 6, mean ± SD, read-out: t1/2 (converted)): 1.2 ± 0.3 h; Cl [1, 5]: 2015 ± 615.8 mL/min/kg; Vd [1, 5]: 785.1 ± 130.6 L/kg; Effect on aconitine toxicity to myoblasts (H9c2): reduce aconitine’s toxicity; Effect on pro-inflammatory responses and bile acid levels [3]: improves pro-inflammatory responses and bile acid levels
